Results reported in patent US20230085307A1, “PYRIDAZINONE COMPOUND AND HERBICIDE” (NISSAN CHEMICAL CORPORATION, priority 2019, published 2023).

Key:
rice flat sedge = assay: Test Example 3: herbicidal effect by foliage application, Wagner pot (Table 18, symbol E); format: in vivo, rice flat sedge (Cyperus iria); settings: 320 g/ha
In short: (§1)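 Plants were sown in alluvial soil held under 0.1–0.5 cm standing water and grown 14 days in a greenhouse at 25–30 °C. An emulsifiable formulation, water-diluted to the set dose, was then sprayed onto the foliage, and effects were scored three weeks later using previously defined criteria.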

Japanese bulrush [1] = assay: Test Example 2: herbicidal activity, application during weed generation under submerged conditions (Table 17, symbol B); format: in vivo, Japanese bulrush (Schoenoplectus juncoides); settings: AAH 320 g/ha; application during weed generation, submerged conditions
Procedure: (§2) [Test Example 2] Herbicidal Activity Test by Application during Weed Generation under Submerged Conditions After alluvial soil was placed into 1/10000 are of Wagner pot, water was poured and mixed to form a submerged condition having a water depth of 4 cm. Seeds of late watergrass, Japanese bulrush, and oval-leafed pondweed were sowed in a mixed manner in the aforementioned pot, and the pot was placed in a greenhouse at 25° C. to 30° C. for growth of the plants. When late watergrass, Japanese bulrush, and oval-leafed pondweed were grown to one leaf stage to two leaf stage, the emulsion agent of the compound of the present invention prepared according to Formulation Example 2 was diluted with water so as to achieve a predetermined herbicide amount, and the diluted emulsion agent was applied to the surface of the water. Three weeks after the herbicide application, the effect of the herbicide on each plant was evaluated according to the criteria of Test Example 1.

Chinese sprangletop = assay: Test Example 3: herbicidal effect by foliage application, Wagner pot (Table 18, symbol D); format: in vivo, chinese sprangletop (Leptochloa chinensis); settings: 320 g/ha
In short: as §1

late watergrass [2] = assay: Test Example 2: herbicidal activity, application during weed generation under submerged conditions (Table 17, symbol A); format: in vivo, late watergrass (Echinochloa oryzicola); settings: AAH 320 g/ha; application during weed generation, submerged conditions
Procedure: as §2

oval-leafed pondweed [3] = assay: Test Example 2: herbicidal activity, application during weed generation under submerged conditions (Table 17, symbol C); format: in vivo, oval-leafed pondweed (Monochoria vaginalis); settings: AAH 320 g/ha; application during weed generation, submerged conditions
Procedure: as §2

barnyard grass [4] = assay: Test Example 3: herbicidal effect by foliage application, Wagner pot (Table 18, symbol H); format: in vivo, barnyard grass (Echinochloa crus-galli); settings: 320 g/ha
In short: as §1

Japanese bulrush [5] = assay: Test Example 1: herbicidal activity, application before weed generation under submerged conditions (Table 16, symbol B); format: in vivo, Japanese bulrush (Schoenoplectus juncoides); settings: 320 g/ha applied herbicide
In short: (§3)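 Alluvial soil was flooded to 4 cm depth, weed seeds were sown mixed and 2.5-leaf rice seedlings were transplanted. On sowing day, the compound's emulsion, diluted in water to a set dose, was applied to the water surface. Plants grew at 25–30 °C and were scored 0–5 after three weeks.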

blackgrass [6] = assay: Test Example 4: herbicidal effect by soil treatment (Table 19, symbol J); format: in vivo, blackgrass (Alopecurus myosuroides); settings: AAH 320 g/ha
In short: (§4)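 Herbicidal effect was rated 3 weeks after treatment, using the scoring criteria of an earlier test. The compound, formulated as an emulsion and diluted in water to a set herbicide amount, had been sprayed uniformly on soil over freshly sown seeds. Growth took place in a greenhouse at 25° C. to 30° C.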

wild oat [7] = assay: Test Example 5: herbicidal effect by foliage application, plastic box (Table 20, symbol I); format: in vivo, wild oat (Avena fatua); settings: foliage application, 320 g/ha, 3 weeks after application
In short: (§5)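 Foliar spray test: emulsion formulation diluted in water to a set application rate, sprayed onto 14-day-old plants raised in diluvial soil at 25° C to 30° C under glass. Both herbicidal effect and crop effect rated visually three weeks later.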

late watergrass [8] = assay: Test Example 1: herbicidal activity, application before weed generation under submerged conditions (Table 16, symbol A); format: in vivo, late watergrass (Echinochloa oryzicola); settings: 320 g/ha applied herbicide
In short: as §3

wild oat [9] = assay: Test Example 4: herbicidal effect by soil treatment (Table 19, symbol I); format: in vivo, wild oat (Avena fatua); settings: AAH 320 g/ha
In short: as §4

blackgrass [10] = assay: Test Example 5: herbicidal effect by foliage application, plastic box (Table 20, symbol J); format: in vivo, blackgrass (Alopecurus myosuroides); settings: foliage application, 320 g/ha, 3 weeks after application
In short: as §5

green foxtail [11] = assay: Test Example 4: herbicidal effect by soil treatment (Table 19, symbol G); format: in vivo, green foxtail (Setaria viridis); settings: AAH 320 g/ha
In short: as §4

chickweed = assay: Test Example 4: herbicidal effect by soil treatment (Table 19, symbol P); format: in vivo, common chickweed (Stellaria media); settings: AAH 320 g/ha
In short: as §4

persian speedwell [12] = assay: Test Example 4: herbicidal effect by soil treatment (Table 19, symbol R); format: in vivo, Persian speedwell (Veronica persica); settings: AAH 320 g/ha
In short: as §4

barnyard grass [13] = assay: Test Example 5: herbicidal effect by foliage application, plastic box (Table 20, symbol H); format: in vivo, barnyard grass (Echinochloa crus-galli); settings: foliage application, 320 g/ha, 3 weeks after application
In short: as §5

oval-leafed pondweed [14] = assay: Test Example 1: herbicidal activity, application before weed generation under submerged conditions (Table 16, symbol C); format: in vivo, oval-leafed pondweed (Monochoria vaginalis); settings: 320 g/ha applied herbicide
In short: as §3

Italian ryegrass [15] = assay: Test Example 4: herbicidal effect by soil treatment (Table 19, symbol K); format: in vivo, Italian ryegrass (Lolium multiflorum); settings: AAH 320 g/ha
In short: as §4

barnyard grass [16] = assay: Test Example 4: herbicidal effect by soil treatment (Table 19, symbol H); format: in vivo, barnyard grass (Echinochloa crus-galli); settings: AAH 320 g/ha
In short: as §4

Italian ryegrass [17] = assay: Test Example 5: herbicidal effect by foliage application, plastic box (Table 20, symbol K); format: in vivo, Italian ryegrass (Lolium multiflorum); settings: foliage application, 320 g/ha, 3 weeks after application
In short: as §5

velvetleaf [18] = assay: Test Example 4: herbicidal effect by soil treatment (Table 19, symbol M); format: in vivo, velvetleaf (Abutilon theophrasti); settings: AAH 320 g/ha
In short: as §4

persian speedwell [19] = assay: Test Example 5: herbicidal effect by foliage application, plastic box (Table 20, symbol R); format: in vivo, Persian speedwell (Veronica persica); settings: foliage application, 320 g/ha, 3 weeks after application
In short: as §5

lambsquarters [20] = assay: Test Example 4: herbicidal effect by soil treatment (Table 19, symbol O); format: in vivo, lambsquarters (Chenopodium album); settings: AAH 320 g/ha
In short: as §4

lambsquarters [21] = assay: Test Example 5: herbicidal effect by foliage application, plastic box (Table 20, symbol O); format: in vivo, lambsquarters (Chenopodium album); settings: foliage application, 320 g/ha, 3 weeks after application
In short: as §5

redroot pigweed = assay: Test Example 4: herbicidal effect by soil treatment (Table 19, symbol N); format: in vivo, redroot pigweed (Amaranthus retroflexus); settings: AAH 320 g/ha
In short: as §4

green foxtail [22] = assay: Test Example 5: herbicidal effect by foliage application, plastic box (Table 20, symbol G); format: in vivo, green foxtail (Setaria viridis); settings: foliage application, 320 g/ha, 3 weeks after application
In short: as §5

southern crabgrass [23] = assay: Test Example 4: herbicidal effect by soil treatment (Table 19, symbol F); format: in vivo, southern crabgrass (Digitaria ciliaris); settings: AAH 320 g/ha
In short: as §4

velvetleaf [24] = assay: Test Example 5: herbicidal effect by foliage application, plastic box (Table 20, symbol M); format: in vivo, velvetleaf (Abutilon theophrasti); settings: foliage application, 320 g/ha, 3 weeks after application
In short: as §5

southern crabgrass [25] = assay: Test Example 5: herbicidal effect by foliage application, plastic box (Table 20, symbol F); format: in vivo, southern crabgrass (Digitaria ciliaris); settings: foliage application, 320 g/ha, 3 weeks after application
In short: as §5

For COC(=O)COc1ccc(-c2sc3ccccc3c2-c2c(O)c(C)nn(C)c2=O)cc1 [1-232], the “herbicidal effect on E (rice flat sedge), rating 0-5” value (rice flat sedge) was 3 (Herbicidal rate of 40% or more and less than 70%), the “herbicidal effect rating, B: Japanese bulrush” value (Japanese bulrush [1]) was 0 (Herbicidal rate of 5% or less (almost no effect)) and the “herbicidal effect on D (Chinese sprangletop), rating 0-5” value (Chinese sprangletop) was 3 (Herbicidal rate of 40% or more and less than 70%). For the same molecule, the “herbicidal effect rating, A: late watergrass” value (late watergrass [2]) was 3 (Herbicidal rate of 40% or more and less than 70%), the “herbicidal effect rating, C: oval-leafed pondweed” value (oval-leafed pondweed [3]) was 0 (Herbicidal rate of 5% or less (almost no effect)) and the “herbicidal effect on H (barnyard grass), rating 0-5” value (barnyard grass [4]) was 3 (Herbicidal rate of 40% or more and less than 70%).

In the case of C=CCOCc1ccc(-c2sc3ccccc3c2-c2c(O)c(C)nn(C)c2=O)cc1 [1-241], the “Herbicidal effect on B: Japanese bulrush (grade 0-5)” value (Japanese bulrush [5]) is reported as 3 (Herbicidal rate of 40% or more and less than 70%), the “J: blackgrass, herbicidal effect rating” value (blackgrass [6]) is reported as 2 (Herbicidal rate of 20% or more and less than 40%) and the “effect on wild oat (I)” value (wild oat [7]) is reported as 0 (Herbicidal rate of 5% or less (almost no effect)). The “Herbicidal effect on A: late watergrass (grade 0-5)” value (late watergrass [8]) was 0 (Herbicidal rate of 5% or less (almost no effect)), the “herbicidal effect on E (rice flat sedge), rating 0-5” value (rice flat sedge) was 4 (Herbicidal rate of 70% or more and less than 90%) and the “I: wild oat, herbicidal effect rating” value (wild oat [9]) was 0 (Herbicidal rate of 5% or less (almost no effect)). The “effect on blackgrass (J)” value (blackgrass [10]) was 3 (Herbicidal rate of 40% or more and less than 70%), the “G: green foxtail, herbicidal effect rating” value (green foxtail [11]) was 3 (Herbicidal rate of 40% or more and less than 70%) and the “P: chickweed, herbicidal effect rating” value (chickweed) was 3 (Herbicidal rate of 40% or more and less than 70%). The “herbicidal effect rating, B: Japanese bulrush” value (Japanese bulrush [1]) was 3 (Herbicidal rate of 40% or more and less than 70%), the “R: persian speedwell, herbicidal effect rating” value (persian speedwell [12]) was 5 (Herbicidal rate of 90% or more (almost completely withered)) and the “effect on barnyard grass (H)” value (barnyard grass [13]) was 4 (Herbicidal rate of 70% or more and less than 90%). The “herbicidal effect on D (Chinese sprangletop), rating 0-5” value (Chinese sprangletop) was 3 (Herbicidal rate of 40% or more and less than 70%), the “herbicidal effect rating, A: late watergrass” value (late watergrass [2]) was 3 (Herbicidal rate of 40% or more and less than 70%) and the “Herbicidal effect on C: oval-leafed pondweed (grade 0-5)” value (oval-leafed pondweed [14]) was 2 (Herbicidal rate of 20% or more and less than 40%). The “K: Italian ryegrass, herbicidal effect rating” value (Italian ryegrass [15]) was 3 (Herbicidal rate of 40% or more and less than 70%), the “H: barnyard grass, herbicidal effect rating” value (barnyard grass [16]) was 3 (Herbicidal rate of 40% or more and less than 70%) and the “effect on Italian ryegrass (K)” value (Italian ryegrass [17]) was 5 (Herbicidal rate of 90% or more (almost completely withered)). The “M: velvetleaf, herbicidal effect rating” value (velvetleaf [18]) was 0 (Herbicidal rate of 5% or less (almost no effect)), the “effect on persian speedwell (R)” value (persian speedwell [19]) was 5 (Herbicidal rate of 90% or more (almost completely withered)) and the “O: lambsquarters, herbicidal effect rating” value (lambsquarters [20]) was 4 (Herbicidal rate of 70% or more and less than 90%). For the same molecule, the “effect on lambsquarters (O)” value (lambsquarters [21]) was 4 (Herbicidal rate of 70% or more and less than 90%), the “N: redroot pigweed, herbicidal effect rating” value (redroot pigweed) was 5 (Herbicidal rate of 90% or more (almost completely withered)) and the “herbicidal effect on H (barnyard grass), rating 0-5” value (barnyard grass [4]) was 5 (Herbicidal rate of 90% or more (almost completely withered)). For the same molecule, the “effect on green foxtail (G)” value (green foxtail [22]) was 5 (Herbicidal rate of 90% or more (almost completely withered)), the “F: southern crabgrass, herbicidal effect rating” value (southern crabgrass [23]) was 1 (Herbicidal rate of 5% or more and less than 20%) and the “effect on velvetleaf (M)” value (velvetleaf [24]) was 5 (Herbicidal rate of 90% or more (almost completely withered)). The “effect on southern crabgrass (F)” value (southern crabgrass [25]) was 2 (Herbicidal rate of 20% or more and less than 40%).
